According to patent US7030145B2, “Pyridinyl derivatives for the treatment of depression” (Bristol-Myers Squibb Company, priority 2003, dated 2006):

Biological target: T1, cloned human CRF-R1 receptors (Homo sapiens, UniProt P34998)
T1 construct: the coding region was amplifies by PCR from start to stop codons; expressed in transfected cells; membranes
T1 sequence (P34998 24-415): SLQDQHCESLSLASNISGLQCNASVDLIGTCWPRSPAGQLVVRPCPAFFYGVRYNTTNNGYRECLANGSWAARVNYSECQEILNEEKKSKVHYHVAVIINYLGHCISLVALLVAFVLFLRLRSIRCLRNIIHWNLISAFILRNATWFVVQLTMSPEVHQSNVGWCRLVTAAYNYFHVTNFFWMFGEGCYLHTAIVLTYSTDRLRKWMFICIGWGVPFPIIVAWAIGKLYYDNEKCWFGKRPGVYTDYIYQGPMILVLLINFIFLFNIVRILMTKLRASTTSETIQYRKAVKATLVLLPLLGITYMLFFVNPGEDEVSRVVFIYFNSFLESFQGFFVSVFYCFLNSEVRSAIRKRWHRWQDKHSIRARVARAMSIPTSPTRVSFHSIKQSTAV
Experiment: CRF-R1 receptor binding assay (inhibition of 125I-ovine-CRF binding to cell membranes)
Conditions: membranes of 293EBNA cells transfected with hCRFR1, class d = reported as percent inhibition at 10 μM, figures not given, read-out: activity (Ki class in the CRF assays)
Source text: The following is a description of the isolation of cell membranes containing cloned human CRF-R1 receptors for use in a standard binding assay as well as a description of the assay itself.
Messenger RNA was isolated from human hippocampus. […]. The mRNA was reverse transcribed using oligo (dt) 12–18 and the coding region was amplifies by PCR from start to stop codons. The resulting PCR fragment was cloned into the EcoRV site of pGEMV, from whence the insert was reclaimed using XhoI+XbaI and cloned into the XhoI+XbaI sites of vector pm3 as (which contains a CMV promoter, the SV′t′ splice and early poly A signals, an Eptein-Barr viral origin of replication, and a hygromycin selectable marker). The resulting expression vector, called phchCRFR was transfected in 293EBNA cells and cells retaining the episome were selected in the presence of […] hygromycin. Cells surviving 4 weeks of selection in hygromycin were pooled, adapted to growth in suspension and used to generate membranes for the binding assay described below. Individual aliquots containing approximately 1×10^8 of the suspended cells were then centrifuged to form a pellet and frozen. For the binding assay a frozen pellet described above containing 293EBNA cells transfected with hCRFR1 receptors is homogenized in 10 mL of ice cold tissue buffer (50 mM HEPES buffer pH 7.0, containing 10 MM MgCl2, 2 mM EGTA, 1 μg/mL apotinin, 1 μg/mL leupeptin and 1 μg/mL pepstatin). The homoginate is centrifuged at 40,000×g for 12 min and the resulting pellet rehomogenized in 10 mL of tissue buffer. After another centrifugation at 40,000×g for 12 min, the pellet is resuspended to a protein concentration of 360 μg/mL to be used in the assay.
Binding assays are performed in 96 well plates; each well having a 300 μL capacity. To each well is added 50 μL of test drug dilutions (final concentration of drugs range from 10^−10–10^−5 M), 100 μL of ^125I-ovine-CRF (^125I-o-CRF) (final concentration 150 pM) and 150 μL of the cell homoginate described above. Plates are then allowed to incubate at room temperature for 2 hours before filtering the incubate over GF/F filters (presoaked with 0.3% polyethyleneimine) using an appropriate cell harvester. Filters are rinsed 2 times with ice cold assay buffer before removing individual filters and assessing them for radioactivity on a gamma counter.
Curves of the inhibition of ^125I-o-CRF binding to cell membranes at various dilutions of test drug are analyzed by the iterative curve fitting program LIGAND [P. J. Munson and D. Rodbard, Anal. Biochem., 107:220 (1980), which provides Ki values for inhibition which are then used to assess biological activity. […]
Messenger RNA was isolated from human hippocampus. The mRNA was isolated from human hippocampus. The mRNA was reverse transcribed using oligo (dt) 12–18 and the coding region was amplifies by PCR from start to stop codons. The resulting PCR fragment was cloned into the EcoRV site of pGEMV, from whence the insert was reclaimed using XhoI+XbaI and cloned into the XhoI+XbaI sites of vector pm3 as (which contains a CMV promoter, the SV′t′ splice and early poly A signals, an Eptein-Barr viral origin of replication, and a hygromycin selectable marker). The resulting expression vector, called phchCRFR was transfected in 293EBNA cells and cells retaining the episome were selected in the presence of […] hygromycin. Cells surviving 4 weeks of selection in hygromycin were pooled, adapted to growth in suspension and used to generate membranes for the binding assay described below. […]
A frozen pellet described above containing 293EBNA cells transfected with hCRFR1 receptors or the rat frontal cortex tissue dissected from frozen rat brains was prepared as the source of membranes expressing CRF1 receptors used in binding assays. […]

Structure (SMILES)	Ki
COc1ccc(S(=O)(=O)c2ccc(C)nc2Nc2c(C)cc(C)cc2C)cc1OC [Example 39, [3-(3,4-Dimethoxybenzenesulfonyl)-6-methylpyridin-2-yl]-(2,4,6-trimethylphenyl)-amine]	500 to 5000 nM
Cc1cc(C)c(NCc2ccc(S(=O)(=O)c3ccc(C)nc3Nc3c(C)cc(C)cc3C)cc2)c(C)c1 [Example 51, (6-Methyl-3-{4-[(2,4,6-trimethylphenylamino)-methyl]-benzenesulfonyl}-pyridin-2-yl)-(2,4,6-trimethylphenyl)-amine]	500 to 5000 nM
Cc1cc(C)c(Nc2nc(C)ccc2S(=O)(=O)c2ccc(C=O)cc2)c(C)c1 [Example 52, 4-[6-Methyl-2-(2,4,6-trimethylphenylamino)-pyridine-3-sulfonyl]-benzaldehyde]	500 to 5000 nM
C=CCOc1cccc(S(=O)(=O)c2ccc(C)nc2Nc2c(C)cc(C)cc2C)c1 [Example 59, [3-(3-Allyloxybenzenesulfonyl)-6-methylpyridin-2-yl]-(2,4,6-trimethylphenyl)-amine]	100 to 500 nM
Cc1cc(C)c(Nc2nc(C)ccc2S(=O)(=O)c2cccc(OCc3ccccc3)c2)c(C)c1 [Example 60, [3-(3-Benzyloxybenzenesulfonyl)-6-methylpyridin-2-yl]-(2,4,6-trimethylphenyl)-amine]	100 to 500 nM
Cc1cc(C)c(Nc2nc(C)ccc2S(=O)(=O)c2cccc(OCc3ccc(F)cc3)c2)c(C)c1 [Example 61, {3-[3-(4-Fluorobenzyloxy)-benzenesulfonyl]-6-methylpyridin-2-yl}-(2,4,6-trimethylphenyl)-amine]	100 to 500 nM
COc1cccc(COc2cccc(S(=O)(=O)c3ccc(C)nc3Nc3c(C)cc(C)cc3C)c2)c1 [Example 62, {3-[3-(3-Methoxybenzyloxy)-benzenesulfonyl]-6-methylpyridin-2-yl}-(2,4,6-trimethylphenyl)-amine]	100 to 500 nM
Cc1cc(C)c(Nc2nc(C)ccc2S(=O)(=O)c2cccc(OCc3ccc(Cl)nc3)c2)c(C)c1 [Example 64, {3-[3-(6-Chloropyridin-3-ylmethoxy)-benzenesulfonyl]-6-methylpyridin-2-yl}-(2,4,6-trimethylphenyl)-amine]	100 to 500 nM
Cc1cc(C)c(Nc2nc(C)ccc2S(=O)(=O)c2cccc(OCc3cc(Cl)nc(Cl)c3)c2)c(C)c1 [Example 65, {3-[3-(2,6-Dichloropyridin-4-ylmethoxy)-benzenesulfonyl]-6-methylpyridin-2-yl}-(2,4,6-trimethylphenyl)-amine]	100 to 500 nM
CCc1ccc(S(=O)(=O)c2ccc(C)nc2Nc2ccc(C)cc2C)cc1 [Example 66, (2,4-Dimethylphenyl)-[3-(4-ethylbenzenesulfonyl)-6-methylpyridin-2-yl]-amine]	100 to 500 nM
CCc1ccc(S(=O)(=O)c2ccc(C)nc2Nc2ccc(OC)cc2OC)cc1 [Example 68, (2,4-Dimethoxyphenyl)-[3-(4-ethylbenzenesulfonyl)-6-methylpyridin-2-yl]-amine]	100 to 500 nM

Other lines, results leading:

Ki	Structure (SMILES)
100 to 500 nM	C=CCOc1ccc(S(=O)(=O)c2ccc(C)nc2Nc2c(C)cc(C)cc2C)cc1 [Example 13, [3-(4-Allyloxybenzenesulfonyl)-6-methylpyridin-2-yl]-(2,4,6-trimethylphenyl)-amine]
100 to 500 nM	Cc1cc(C)c(Nc2nc(C)ccc2S(=O)(=O)c2ccc(C)c(C)c2)c(C)c1 [Example 38, [3-(3,4-Dimethylbenzenesulfonyl)-6-methylpyridin-2-yl]-(2,4,6-trimethylphenyl)-amine]
100 to 500 nM	Cc1cc(C)c(Nc2nc(C)ccc2S(=O)(=O)c2ccc(Cl)c(Cl)c2)c(C)c1 [Example 40, [3-(3,4-Dichlorobenzenesulfonyl)-6-methylpyridin-2-yl]-(2,4,6-trimethylphenyl)-amine]
100 to 500 nM	Cc1ccc(S(=O)(=O)c2ccc(C)nc2Nc2c(C)cc(C)cc2C)cc1 [Example 41, [6-Methyl-3-(toluene-4-sulfonyl)-pyridin-2-yl]-(2,4,6-trimethylphenyl)-amine]
≤ 100 nM	CCc1ccc(S(=O)(=O)c2ccc(C)nc2Nc2c(C)cc(C)cc2C)cc1 [Example 42, [3-(4-Ethylbenzenesulfonyl)-6-methylpyridin-2-yl]-(2,4,6-trimethylphenyl)-amine]
100 to 500 nM	Cc1cc(C)c(Nc2nc(C)ccc2S(=O)(=O)c2ccc(C(C)C)cc2)c(C)c1 [Example 43, [3-(4-Isopropylbenzenesulfonyl)-6-methylpyridin-2-yl]-(2,4,6-trimethylphenyl)-amine]
100 to 500 nM	Cc1cc(C)c(Nc2nc(C)ccc2S(=O)(=O)c2ccc(OC(F)(F)F)cc2)c(C)c1 [Example 44, [6-Methyl-3-(4-trifluoromethoxybenzenesulfonyl)-pyridin-2-yl]-(2,4,6-trimethylphenyl)-amine]
100 to 500 nM	Cc1cc(C)c(Nc2nc(C)ccc2S(=O)(=O)c2ccc(F)cc2)c(C)c1 [Example 45, [3-(4-Fluorobenzenesulfonyl)-6-methylpyridin-2-yl]-(2,4,6-trimethylphenyl)-amine]
≤ 100 nM	C#Cc1ccc(S(=O)(=O)c2ccc(C)nc2Nc2c(C)cc(C)cc2C)cc1 [Example 47, [3-(4-Ethynylbenzenesulfonyl)-6-methylpyridin-2-yl]-(2,4,6-trimethylphenyl)-amine]
≤ 100 nM	Cc1cc(C)c(Nc2nc(C)ccc2S(=O)(=O)c2ccc(-c3ccccc3)cc2)c(C)c1 [Example 48, [3-(Biphenyl-4-sulfonyl)-6-methylpyridin-2-yl]-(2,4,6-trimethylphenyl)-amine]
≤ 100 nM	COc1ccccc1-c1ccc(S(=O)(=O)c2ccc(C)nc2Nc2c(C)cc(C)cc2C)cc1 [Example 49, [3-(2′-Methoxybiphenyl-4-sulfonyl)-6-methylpyridin-2-yl]-(2,4,6-trimethylphenyl)-amine]
100 to 500 nM	Cc1cc(C)c(Nc2nc(C)ccc2S(=O)(=O)c2ccc(CO)cc2)c(C)c1 [Example 50, {4-[6-Methyl-2-(2,4,6-trimethylphenylamino)-pyridine-3-sulfonyl]-phenyl}-methanol]
100 to 500 nM	Cc1cc(C)c(Nc2nc(C)ccc2S(=O)(=O)c2ccc(C(O)c3ccccc3)cc2)c(C)c1 (centres unmarked) [Example 53, {4-[6-Methyl-2-(2,4,6-trimethylphenylamino)-pyridine-3-sulfonyl]-phenyl}-phenyl-methanol]
≤ 100 nM	CCc1ccc(S(=O)(=O)c2ccc(C)nc2Nc2ccc(OC)cc2C)cc1 [Example 67, [3-(4-Ethylbenzenesulfonyl)-6-methylpyridin-2-yl]-(4-methoxy-2-methylphenyl)-amine]
≤ 100 nM	CCc1ccc(S(=O)(=O)c2ccc(C)nc2Nc2cc(C)c(C)cc2C)cc1 [Example 70, [3-(4-Ethylbenzenesulfonyl)-6-methylpyridin-2-yl]-(2,4,5-trimethylphenyl)-amine]
